# Results reported in patent EP0223890B1, “Aryl derivatives of pyrrole, their obtention and their use in immunology” (Albert ROLLAND S.A. Société dite, priority 1985, dated 1987).
# Tests used:
# [1] = system: cellules spléniques de souris C57BL/6J; experiment: rosette test in vitro (sheep red blood cells with mouse spleen cells); format: cell-based; settings: for activité inhibitrice sur la formation des rosettes (comparison in words): compared with acide N-méthyl-4-(naphtoyl-1)-pyrrolyl-2-carboxylique; for activité immuno-stimulante (stimulation de la formation des rosettes): result in words
# Text: A) Activité des composés selon l'invention sur le test des rosettes in vitro
# L'étude a été réalisée sur globules rouges de mouton avec des cellules spléniques de souris C57BL/6J.
# [2] = system: transformation lymphoblastique; experiment: lymphoblastic transformation test; format: cell-based; settings: low concentration; vis-à-vis de la Concanavaline A and LPS (Lipopolysaccharides de E. Coli)
# Description: B) Activité des composés selon l'invention sur le test de transformation lymphoblastique
# Sur le test de transformation lymphoblastique, les composés selon l'invention montrent une activité antimitotique, aux doses allant de 5 à 50 µg/ml. […] La mise en évidence d'une activité immuno-stimulante pour certains de ces composés permet d'envisager une autre application thérapeutique.
SMILES,activité inhibitrice sur la formation des rosettes (comparison in words) [1],activité immuno-stimulante (stimulation de la formation des rosettes) [1],activité stimulante à faible concentration [2]
"Cn1cc(C(=O)c2cccc3c(O)cccc23)cc1C(=O)O [dérivé N-méthyl-5-hydroxylé, Acide N-méthyl-4-(5-hydroxy-naphtoyl-1)-pyrrolyl-2-carboxylique]",inhibiteur à un degré identique,activité immuno-stimulante à faible concentration,
O=C(O)c1cc(C(=O)c2cccc3ccccc23)c[nH]1 [acide 4-(naphtoyl-1)pyrrolyl-2-carboxylique],activité inhibitrice du même ordre que celle du dérivé N-méthylé,,activité stimulante
Cn1cc(C(=O)c2cc([S+](C)[O-])cc3ccccc23)cc1C(=O)O (centres unmarked) [Acide N-méthyl-4-(3-méthylsulfinylnaphtoyl-1)-pyrrolyl-2-carboxylique],activité comparable à celle de l'acide N-méthyl-4-(naphtoyl-1 )-pyrrolyl-2-carboxylique,,activité stimulante
"Cn1cc(C(=O)c2cc(O)cc3ccccc23)cc1C(=O)O [dérivé N-méthyl-(3-hydroxy-naphtoyl-1), Acide N-méthyl-4-(3-hydroxy-naphtoyl-1)-pyrrolyl-2-carboxylique]",,stimuler la formation des rosettes,
"Cn1cc(C(=O)c2cccc3c2C=CC(O)C3O)cc1C(=O)O (centres unmarked) [acide N-méthyl-4-(5,6-dihydroxy-5,6-dihydronaphtoyl-1)-pyrrolyl-2-carboxylique]",activité comparable à celle de l'acide N-méthyl-4-(naphtoyl-1 )-pyrrolyl-2-carboxylique,,
